# Columns and labels:
# [1] = Elimination half life in healthy Homo sapiens (human); type: ADME, organism-based; settings: in vivo, read-out: beta t1/2 (converted)
# [2] = Volume of distribution in Homo sapiens (human); type: ADME, organism-based; settings: in vivo
# Homo sapiens = organism: Homo sapiens; experiment: Distribution half life in Homo sapiens (human); type: ADME, organism-based; settings: in vivo
# [3] = Renal clearance in healthy Homo sapiens (human); type: ADME, organism-based, Kidney; settings: in vivo
# [4] = Oral bioavailability in older Homo sapiens (human) individuals at 1 mg; type: ADME, organism-based; settings: in vivo
# [5] = Oral bioavailability in healthy Homo sapiens (human) at 1 mg; type: ADME, organism-based; settings: in vivo
smiles,measurement,setting,value
COc1cc2c(c(OC)c1OC)-c1ccc(OC)c(=O)cc1[C@@H](NC(C)=O)CC2 [COLCHICINE],half-life,[1],840 min
same,Vd,[2],7 L/kg
same,alphat1/2,Homo sapiens,1 h
same,CL renal,[3],66.7 mL/min
same,bioavailability,[4],45%
same,bioavailability,[5],45%

# Reference: ChEMBL document CHEMBL3044549, “Colchicine and its various physicochemical and biological aspects” (Med Chem Res, 2013)
